According to article PMC6522912, “Evaluation of the published kinase inhibitor set to identify multiple inhibitors of bacterial ATP-dependent mur ligases” (Journal of Enzyme Inhibition and Medicinal Chemistry, 2019):

molecular target: E. coli MurD (Escherichia coli, UniProt P14900); assay: biochemical; conditions: 0.25 h, Table S1, PKIS screening; read-out: RA [%] at 100 µM MurD
Protocol: (§1) Inhibition of the Mur ligases was determined using the malachite green assay, with slight modifications.
(§2) In all cases, the final concentration of DMSO was 5% (v/v). After incubation for 15 min at 37 °C, the enzyme reaction was terminated by addition of 100 µM Biomol green reagent, and the absorbance was measured at 650 nm after 5 min. All of the experiments were run in duplicate. Residual activities were calculated with respect to control assays without the tested compounds, but with the 5% DMSO carrier.
(§3) The published kinase inhibitor set compounds were evaluated for inhibition of MurC, D and F ligases from E. coli using the Malachite green assay, which detects orthophosphate generated during enzymatic reactions. To avoid non-specific inhibition due to aggregate formation, all of the compounds were tested in the presence of detergent (0.005% Triton-X114). The data are presented as the residual activities of these Mur ligases in the presence of 100 µM of each test compound (Supporting Information Table S1).

Chain of E. coli MurD (P14900 whole entry): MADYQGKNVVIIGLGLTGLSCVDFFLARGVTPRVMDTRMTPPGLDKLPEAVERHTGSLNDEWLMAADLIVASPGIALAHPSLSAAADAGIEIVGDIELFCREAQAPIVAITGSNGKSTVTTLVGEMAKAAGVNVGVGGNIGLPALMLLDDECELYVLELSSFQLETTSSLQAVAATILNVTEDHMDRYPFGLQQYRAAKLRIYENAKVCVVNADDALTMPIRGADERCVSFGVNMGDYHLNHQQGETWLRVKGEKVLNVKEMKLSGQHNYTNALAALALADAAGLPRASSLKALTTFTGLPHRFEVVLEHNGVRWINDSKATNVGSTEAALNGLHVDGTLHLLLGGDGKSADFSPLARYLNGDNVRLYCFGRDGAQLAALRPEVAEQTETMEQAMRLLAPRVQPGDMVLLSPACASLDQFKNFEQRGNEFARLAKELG

Point of comparison: `Cc1cccc(Nc2ncc(-c3ccccc3)o2)c1` [GW632046X], remaining activity at 100 µM 84%. Against it:
- CS(=O)(=O)CCNCc1ccc(-c2ccc3ncnc(Nc4ccc(OCc5ccccc5)cc4)c3c2)o1 [GW458787A] — lower, 58%
- O=C(O[C@H]1CN[C@H](C#Cc2cc3ncnc(Nc4ccc5c(cnn5Cc5ccccc5)c4)c3s2)C1)N1CCOCC1 [GSK200398A] — lower, 61%
- N#Cc1c(NC(=O)c2ccc(F)cc2)sc2c1CCCC2 [SB-347804] — lower, 78%
- COc1ccc(C2=C(N3CCc4ccccc43)C(=O)NC2=O)cc1 [SB-361058] — higher, 100%
- O=C(Nc1n[nH]c2cc(-c3cc(F)ccc3F)ccc12)C1CC1 [SB-735465] — lower, 80%
- O=C1Nc2ccc(C(=O)c3ccco3)cc2C1=Cc1cc(Cl)c(O)c(Cl)c1 [GW406108X] — higher, 85%
- CNC(=O)c1cncc(/C=C/c2c(C)cccc2C)c1 [GW445012X] — lower, 83%
- O=C1NC(=O)C(N2CCc3ccccc32)=C1c1ccc(Cl)cc1 [SB-333612] — higher, 96%
- O=C1NC(=O)C(c2ccccc2Cl)=C1Nc1cccc(O)c1 [SB-390527] — lower, 83%
- COc1cc(Nc2ncc(-c3ccccc3)o2)cc(OC)c1 [GW631581B] — lower, 79%

molecular target: E. coli MurF (Escherichia coli, UniProt P11880); assay: biochemical; conditions: 0.25 h, Table S1, PKIS screening; read-out: RA [%] at 100 µM MurF
Sequence (P11880 whole entry): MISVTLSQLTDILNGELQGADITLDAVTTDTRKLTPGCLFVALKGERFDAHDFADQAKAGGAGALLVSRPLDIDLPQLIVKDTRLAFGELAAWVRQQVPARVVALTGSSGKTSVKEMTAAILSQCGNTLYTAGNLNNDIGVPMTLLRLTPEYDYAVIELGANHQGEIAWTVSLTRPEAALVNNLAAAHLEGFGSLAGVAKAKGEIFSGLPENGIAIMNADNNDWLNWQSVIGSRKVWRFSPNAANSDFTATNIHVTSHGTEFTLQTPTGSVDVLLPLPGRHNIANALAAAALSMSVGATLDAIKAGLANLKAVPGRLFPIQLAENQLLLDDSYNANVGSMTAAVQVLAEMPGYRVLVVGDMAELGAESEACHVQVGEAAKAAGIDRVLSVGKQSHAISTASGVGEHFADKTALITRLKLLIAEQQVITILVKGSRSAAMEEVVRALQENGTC
Protocol: as §1, §2
as §3, with “S1). […] Additionally, regarding the data of profiled compounds in large panels of human kinase assays[41]” for “S1).”

Point of comparison: `O=C(O[C@H]1CN[C@H](C#Cc2cc3ncnc(Nc4ccc5c(cnn5Cc5ccccc5)c4)c3s2)C1)N1CCOCC1` [GSK200398A], remaining activity at 100 µM 60%. Against it:
- CS(=O)(=O)CCNCc1ccc(-c2ccc3ncnc(Nc4ccc(OCc5ccccc5)cc4)c3c2)o1 [GW458787A] — higher, 66%
- Cc1cccc(Nc2ncc(-c3ccccc3)o2)c1 [GW632046X] — higher, 97%
- N#Cc1c(NC(=O)c2ccc(F)cc2)sc2c1CCCC2 [SB-347804] — higher, 100%
- COc1ccc(C2=C(N3CCc4ccccc43)C(=O)NC2=O)cc1 [SB-361058] — higher, 97%
- O=C(Nc1n[nH]c2cc(-c3cc(F)ccc3F)ccc12)C1CC1 [SB-735465] — higher, 82%
- O=C1Nc2ccc(C(=O)c3ccco3)cc2C1=Cc1cc(Cl)c(O)c(Cl)c1 [GW406108X] — higher, 79%
- CNC(=O)c1cncc(/C=C/c2c(C)cccc2C)c1 [GW445012X] — lower, 54%
- O=C1NC(=O)C(N2CCc3ccccc32)=C1c1ccc(Cl)cc1 [SB-333612] — higher, 100%
- O=C1NC(=O)C(c2ccccc2Cl)=C1Nc1cccc(O)c1 [SB-390527] — higher, 88%
- COc1cc(Nc2ncc(-c3ccccc3)o2)cc(OC)c1 [GW631581B] — higher, 97%
- Cc1cccc2c1NC(=O)C2=NNc1ccc(S(N)(=O)=O)cc1 [GW282536X] — lower, 27%
- COc1cccc(-c2c[nH]c3c(N/N=C/c4ccncc4)ncnc23)c1 [GW814408X] — higher, 87%
- Clc1ccc(CNc2nccc(-c3cnn4ncccc34)n2)cc1 [GW781673X] — higher, 63%
- OCc1ccc(-c2nc(-c3ccccn3)c(-c3ccc4c(c3)OCO4)[nH]2)cc1 [SB-431533] — higher, 75%
- Cn1c(-c2nonc2N)nc2cnccc21 [SB-736290] — higher, 90%
- CC(=O)NCc1cccc(C#Cc2cncnc2Nc2ccc(OCc3cccc(F)c3)c(Cl)c2)c1 [GW807930X] — higher, 69%
- c1ccc(Oc2ccc(Nc3ncc(-c4ccccc4)o3)cc2)cc1 [GW641155A] — higher, 86%
- NC(=O)c1cccc(Nc2nccc(Nc3cccc(F)c3)n2)c1 [GW759710A] — higher, 100%
- COc1cccc(-n2ncc3c(N/N=C/c4ccncc4)ncnc32)c1 [GW784752X] — higher, 93%
- COc1cc2ncn(-c3cc(O[C@@H](C)c4ccccc4Cl)c(C(N)=O)s3)c2cc1OC [GSK237700A] — higher, 75%
- CCn1c(-c2nonc2N)nc2ccccc21 [SB-693162] — higher, 100%
- COc1cc(Nc2ncc3c(C)nc(-c4cccc(C(F)(F)F)c4)n3n2)cc(OC)c1OC [GW837331X] — higher, 89%

same assay, conditions: Table S1, PKIS screening

For `Cc1cc(O)cc(Nc2ccnc3cc(-c4ccccn4)ccc23)c1` [GSK3206866A], the “RA [%] at 100 µM MurF” value was 29%.

molecular target: E. coli MurC (Escherichia coli, UniProt P17952); assay: Malachite green inhibition assay, MurC; assay type: biochemical; conditions: 0.25 h, Table S1, PKIS screening; read-out: RA [%] at 100 µM MurC
Sequence (P17952 whole entry): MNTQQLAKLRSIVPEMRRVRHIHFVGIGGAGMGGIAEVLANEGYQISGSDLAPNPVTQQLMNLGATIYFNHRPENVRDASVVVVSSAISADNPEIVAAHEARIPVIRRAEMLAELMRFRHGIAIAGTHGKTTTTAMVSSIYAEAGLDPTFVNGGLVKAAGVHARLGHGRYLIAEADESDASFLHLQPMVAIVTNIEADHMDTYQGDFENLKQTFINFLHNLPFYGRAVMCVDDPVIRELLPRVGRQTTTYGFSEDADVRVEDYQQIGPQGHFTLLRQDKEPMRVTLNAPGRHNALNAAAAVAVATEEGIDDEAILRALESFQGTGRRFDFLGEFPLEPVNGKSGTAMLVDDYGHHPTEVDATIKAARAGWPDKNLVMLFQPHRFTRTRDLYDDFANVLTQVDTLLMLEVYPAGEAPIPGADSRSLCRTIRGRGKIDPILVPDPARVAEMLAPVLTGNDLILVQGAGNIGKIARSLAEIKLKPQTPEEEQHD
Protocol: as §1, §2
as §3, with “S1). […] Additionally, regarding the data of profiled compounds in large panels of human kinase assays[41]” for “S1).”

Point of comparison: `CS(=O)(=O)CCNCc1ccc(-c2ccc3ncnc(Nc4ccc(OCc5ccccc5)cc4)c3c2)o1` [GW458787A], remaining activity at 100 µM 68%. Against it:
- O=C(O[C@H]1CN[C@H](C#Cc2cc3ncnc(Nc4ccc5c(cnn5Cc5ccccc5)c4)c3s2)C1)N1CCOCC1 [GSK200398A] — lower, 52%
- Cc1cccc(Nc2ncc(-c3ccccc3)o2)c1 [GW632046X] — higher, 100%
- N#Cc1c(NC(=O)c2ccc(F)cc2)sc2c1CCCC2 [SB-347804] — higher, 87%
- COc1ccc(C2=C(N3CCc4ccccc43)C(=O)NC2=O)cc1 [SB-361058] — higher, 100%
- O=C(Nc1n[nH]c2cc(-c3cc(F)ccc3F)ccc12)C1CC1 [SB-735465] — lower, 59%
- O=C1Nc2ccc(C(=O)c3ccco3)cc2C1=Cc1cc(Cl)c(O)c(Cl)c1 [GW406108X] — higher, 74%
- CNC(=O)c1cncc(/C=C/c2c(C)cccc2C)c1 [GW445012X] — higher, 85%
- O=C1NC(=O)C(N2CCc3ccccc32)=C1c1ccc(Cl)cc1 [SB-333612] — higher, 100%
- O=C1NC(=O)C(c2ccccc2Cl)=C1Nc1cccc(O)c1 [SB-390527] — lower, 50%
- COc1cc(Nc2ncc(-c3ccccc3)o2)cc(OC)c1 [GW631581B] — lower, 64%
- Cc1cccc2c1NC(=O)C2=NNc1ccc(S(N)(=O)=O)cc1 [GW282536X] — higher, 93%
- COc1cccc(-c2c[nH]c3c(N/N=C/c4ccncc4)ncnc23)c1 [GW814408X] — higher, 98%
- Clc1ccc(CNc2nccc(-c3cnn4ncccc34)n2)cc1 [GW781673X] — higher, 79%
- OCc1ccc(-c2nc(-c3ccccn3)c(-c3ccc4c(c3)OCO4)[nH]2)cc1 [SB-431533] — higher, 95%
- Cn1c(-c2nonc2N)nc2cnccc21 [SB-736290] — higher, 71%
- CC(=O)NCc1cccc(C#Cc2cncnc2Nc2ccc(OCc3cccc(F)c3)c(Cl)c2)c1 [GW807930X] — lower, 66%
- c1ccc(Oc2ccc(Nc3ncc(-c4ccccc4)o3)cc2)cc1 [GW641155A] — lower, 66%
- NC(=O)c1cccc(Nc2nccc(Nc3cccc(F)c3)n2)c1 [GW759710A] — higher, 100%
- COc1cccc(-n2ncc3c(N/N=C/c4ccncc4)ncnc32)c1 [GW784752X] — higher, 76%
- CCn1c(-c2nonc2N)nc2ccccc21 [SB-693162] — higher, 78%
- COc1cc(Nc2ncc3c(C)nc(-c4cccc(C(F)(F)F)c4)n3n2)cc(OC)c1OC [GW837331X] — lower, 65%

same assay, conditions: Table S1, PKIS screening

For `Cc1cc(O)cc(Nc2ccnc3cc(-c4ccccn4)ccc23)c1` [GSK3206866A], the “RA [%] at 100 µM MurC” value was 76%.
